Measurements as given in ChEMBL document CHEMBL4052648, “Synthesis and evaluation of c-di-4'-thioAMP as an artificial ligand for c-di-AMP riboswitch” (Bioorg Med Chem, 2017).
pKd: −log10 of the molar value.

Columns and labels:
[1] = Binding affinity to Bacillus substilis 5'-32p-labelled 165 nucleotide RNA assessed as reduction in RNA cleavage measured within 40 hrs by PAGE analysis; parameters: species or system Bacillus subtilis; settings: read-out: Kd(app)
YybT = test: Drug metabolism assessed as recombinant Bacillus subtilis YybT-mediated compound hydrolysis by measuring half life at 100 uM by reversed-phase HPLC method; type: ADME; settings: recombinant Bacillus subtilis YybT enzyme
[2] = Drug level treated with c-di-4'-thioAMP assessed as recombinant Bacillus subtilis YybT-mediated metabolite formation at 100 uM by LRMS analysis; type: ADME
[3] = Drug metabolism assessed as recombinant Bacillus subtilis YybT-mediated ((2R,3S,4R,5R)-5-(6-amino-9H-purin-9-yl)-3-((((2R,3S,4R,5R)-5-(6-amino-9H-purin-9-yl)-3,4-dihydroxytetrahydrothiophen-2-yl)methoxy)(hydroxy)phosphoryloxy)-4-hydroxytetrahydrothiophen-2-yl)methyl dihydrogen phosphate formation at 100 uM by LRMS analysis; type: ADME
[4] = Drug metabolism assessed as recombinant Bacillus subtilis YybT-mediated compound degradation by measuring retention time at 100 uM by reversed-phase HPLC analysis; type: ADME

Compound	pKd [1]	half-life at 100 µM (YybT)	Drug metabolism [2]	Drug metabolism [3]	Retention_time [4]
Nc1ncnc2c1ncn2[C@@H]1O[C@@H]2CO[P@@](=O)(O)O[C@H]3[C@@H](O)[C@H](n4cnc5c(N)ncnc54)O[C@@H]3CO[P@@](=O)(O)O[C@H]2[C@H]1O	≥ 8.48	1 h	–	–	–
Nc1ncnc2c1ncn2[C@@H]1S[C@H](COP(=O)(O)O[C@H]2[C@@H](O)[C@H](n3cnc4c(N)ncnc43)S[C@@H]2COP(=O)(O)O)[C@@H](O)[C@H]1O	–	–	Metabolite_Detected	–	–
Nc1ncnc2c1ncn2[C@@H]1S[C@@H]2COP(=O)(O)O[C@H]3[C@@H](O)[C@H](n4cnc5c(N)ncnc54)S[C@@H]3COP(=O)(O)O[C@H]2[C@H]1O	4.46	> 12 h	–	Metabolite_Detected	12.3 min
